“And” between values parts separate entries of the source, which are not always exact repeats. Equal values may be shown once. Inconclusive results and toxic doses are left out. How the source made its calls: active means survival T/C of 150% or more; inactive means T/C below 125% in these data.
Test system: BDF1 mice, P388 leukemia ip, median survival T/C
Assay: NCI In Vivo Anticancer Drug Screen. Data for tumor model P388 Leukemia (intraperitoneal) in B6D2F1 (BDF1) mice
Conditions: endpoint: median survival time, higher = longer survival
Method in brief: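 Reported as T/C, where T is the survival measurement in dosed animals and C the same measurement in vehicle controls.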

[1] = dose: 400.0 mg/kg/injection, schedule: Q04DX003 (ip), vehicle: saline with Tween-80

Measured: T/C

CC(=O)[O][Hg][c]1c(C)c(C)c(C)c(C)c1C
inactive: dose: 3.12 mg/kg/injection, schedule: Q01DX009 (ip), vehicle: Klucel (hydroxypropylcellulose) (HPC) 98 % of control | dose: 6.25 mg/kg/injection, schedule: Q01DX009 (ip), vehicle: Klucel (hydroxypropylcellulose) (HPC) 109 % of control | dose: 12.5 mg/kg/injection, schedule: Q01DX009 (ip), vehicle: Klucel (hydroxypropylcellulose) (HPC) 90 % of control and 107 % of control

COc1cc2c3c(c4ccc(O)cc4c2cc1OC)[C@@H](O)[C@@H]1CCCN1C3
inactive: dose: 2.5 mg/kg/injection, schedule: Q01DX009 (ip), vehicle: water 115 % of control | dose: 5.0 mg/kg/injection, schedule: Q01DX009 (ip), vehicle: water 123 % of control

O=C(/C=C\c1ccc(O)c(O)c1)OC1C(O)CC(OC(=O)/C=C/c2ccc(O)c(O)c2)(C(=O)O)CC1O (stereo unspecified)
inactive: dose: 100.0 mg/kg/injection, schedule: Q01DX001 (ip), vehicle: saline 95 % of control | dose: 100.0 mg/kg/injection, schedule: Q04DX003 (ip), vehicle: Klucel (hydroxypropylcellulose) (HPC) 100 % of control | dose: 200.0 mg/kg/injection, schedule: Q01DX001 (ip), vehicle: saline 95 % of control | dose: 200.0 mg/kg/injection, schedule: Q04DX003 (ip), vehicle: Klucel (hydroxypropylcellulose) (HPC) 100 % of control | dose: 400.0 mg/kg/injection, schedule: Q01DX001 (ip), vehicle: saline 95 % of control | dose: 400.0 mg/kg/injection, schedule: Q04DX003 (ip), vehicle: Klucel (hydroxypropylcellulose) (HPC) 95 % of control

COc1c2c(cc3oc4ccccc4c(=O)c13)CCCC2=O
inactive: dose: 50.0 mg/kg/injection, schedule: Q01DX005 (ip), vehicle: Klucel (hydroxypropylcellulose) (HPC) 90 % of control | dose: 200.0 mg/kg/injection, schedule: Q01DX005 (ip), vehicle: Klucel (hydroxypropylcellulose) (HPC) 88 % of control

CC1([CH2][Hg][I])COCC([CH2][Hg][I])O1 (stereo unspecified)
inactive: dose: 2.87 mg/kg/injection, schedule: Q04DX003 (ip), vehicle: saline 100 % of control | dose: 5.0 mg/kg/injection, schedule: Q01DX009 (ip), vehicle: saline with Tween-80 118 % of control | dose: 5.0 mg/kg/injection, schedule: Q04DX003 (ip), vehicle: saline with Tween-80 100 % of control | dose: 5.75 mg/kg/injection, schedule: Q01DX009 (ip), vehicle: saline 95 % of control | dose: 5.75 mg/kg/injection, schedule: Q04DX003 (ip), vehicle: saline 109 % of control | dose: 10.0 mg/kg/injection, schedule: Q01DX009 (ip), vehicle: saline with Tween-80 113 % of control | dose: 10.0 mg/kg/injection, schedule: Q04DX003 (ip), vehicle: saline with Tween-80 90 % of control | dose: 11.5 mg/kg/injection, schedule: Q01DX009 (ip), vehicle: saline 100 % of control | dose: 11.5 mg/kg/injection, schedule: Q04DX003 (ip), vehicle: saline 100 % of control | dose: 17.0 mg/kg/injection, schedule: Q04DX003 (ip), vehicle: saline 100 % of control | dose: 20.0 mg/kg/injection, schedule: Q01DX009 (ip), vehicle: saline with Tween-80 95 % of control | dose: 20.0 mg/kg/injection, schedule: Q04DX003 (ip), vehicle: saline with Tween-80 118 % of control | dose: 26.0 mg/kg/injection, schedule: Q04DX003 (ip), vehicle: saline 118 % of control

O=C(O)c1ccccc1N=Cc1ccccc1O
inactive: dose: 176.0 mg/kg/injection, schedule: Q04DX003 (ip), vehicle: saline with Tween-80 109 % of control | dose: 264.0 mg/kg/injection, schedule: Q04DX003 (ip), vehicle: saline with Tween-80 109 % of control | [1] 109 % of control

COC(OC)c1[nH]c(=S)[nH]c(=O)c1Cc1cc([N+](=O)[O-])ccc1O
inactive: dose: 25.0 mg/kg/injection, schedule: Q04DX003 (ip), vehicle: saline with Tween-80 104 % of control | dose: 50.0 mg/kg/injection, schedule: Q04DX003 (ip), vehicle: saline with Tween-80 108 % of control | dose: 100.0 mg/kg/injection, schedule: Q04DX003 (ip), vehicle: saline with Tween-80 95 % of control | dose: 200.0 mg/kg/injection, schedule: Q04DX003 (ip), vehicle: saline with Tween-80 104 % of control | [1] 90 % of control

CN(C)c1ccc(/C=N/Nc2ccc(C(C#N)=C(C#N)C#N)cc2)cc1
inactive: dose: 50.0 mg/kg/injection, schedule: Q01DX009 (ip), vehicle: saline with Tween-80 101 % of control | dose: 100.0 mg/kg/injection, schedule: Q01DX009 (ip), vehicle: saline with Tween-80 89 % of control | dose: 200.0 mg/kg/injection, schedule: Q01DX009 (ip), vehicle: saline with Tween-80 86 % of control

COc1ccc2cc1Oc1ccc(cc1)CC1=NCCc3cc(OC)c(OC)c(c31)Oc1cc3c(cc1OC)CCN(C)C3C2 (stereo unspecified)
inactive: dose: 67.0 mg/kg/injection, schedule: Q01DX010 (ip), vehicle: carboxymethylcellulose (CMC) 86 % of control | dose: 100.0 mg/kg/injection, schedule: Q01DX010 (ip), vehicle: carboxymethylcellulose (CMC) 86 % of control

Nc1nc(N)c(Nc2ccc(Cl)cc2)c(Cl)n1
inactive: dose: 100.0 mg/kg/injection, schedule: Q01DX001 (ip), vehicle: saline with Tween-80 88 % of control | dose: 200.0 mg/kg/injection, schedule: Q01DX001 (ip), vehicle: saline with Tween-80 89 % of control

Source: PubChem BioAssay AID328 (DTP/NCI, 2004)
